Reference: patent US9950987B2, “Aspirin derivatives and uses thereof” (North Carolina Agricultural and Technical State University, priority 2012, dated 2018)
Entries after “also recorded” stand apart in the source; their conditions may differ.

Experiments:
[1] = tested on: HCT-116 human colon cancer cells; assay: MTT growth inhibition assay, HCT-116; type: cell-based; settings: 48 h, relative to control
Description: (§1) The effects of the aspirin-stilbene derivative conjugates compared to standards were evaluated based on the inhibition of growth of HCT-116 and HT-29 human colon cancer cells. Cells were plated in 96-well plates in growth medium with 10% FBS. After 24 h, the medium was replaced with fresh medium containing test agent with desired final concentration (20, 30, 40, 50, and 60 μM), and the cells were incubated for 48 h. Viable cells were analyzed using the MTT assay, and the results are shown (FIG. 1) relative to control. Each value represents the mean±S.D. (n=8). FIG. 1, Panel A summarizes the results for aspirin (As), Res, RAS, RAS-1, and the combination of resveratrol and aspirin (Res+As). […] FIG. 1, Panel B summarizes the results for As, MRes, MRAS and the combination of MRes and aspirin (MRes+As). […] FIG. 1, Panel C summarizes the results for As, Pt, PAS, and the combination of pterostilbene and aspirin (Pt+As).
(§2) The effects of As, 6-shogaol (6-s), SAS and the combination of 6-shogaol and aspirin (6-s+As) on the growth of HCT-116 and HT-29 human colon cancer cells and H1299 human lung cancer cells were measured. Cells were plated in 96-well plates in growth medium with 10% FBS. After 24 h, the medium was replaced with fresh medium containing test agent with desired final concentration (5, 7.5, 10, 15, and 20 μM), and the cells were incubated for 48 h. Viable cells were analyzed using the MTT assay, and the results are shown relative to control (FIG. 2).
as §2, with “6-gingerol (6g), GAS,” for “6-shogaol (6-s), SAS”, “6-gingerol” for “6-shogaol”, “(6g+As)” for “(6-s+As)”, “(20, 40, 60, 80,” for “(5, 7.5, 10, 15,”, “100” for “20”, “3).” for “2).”

[2] = tested on: HT-29 human colon cancer cells; assay: MTT growth inhibition assay, HT-29; type: cell-based; settings: 48 h, relative to control
Description: as §1, §2
as §2, with “6-gingerol (6g), GAS,” for “6-shogaol (6-s), SAS”, “6-gingerol” for “6-shogaol”, “(6g+As)” for “(6-s+As)”, “(20, 40, 60, 80,” for “(5, 7.5, 10, 15,”, “100” for “20”, “3).” for “2).”

[3] = tested on: H1299 human lung cancer cells; assay: MTT growth inhibition assay, H1299; type: cell-based; settings: 48 h, relative to control
Description: as §2
as §2, with “6-gingerol (6g), GAS,” for “6-shogaol (6-s), SAS”, “6-gingerol” for “6-shogaol”, “(6g+As)” for “(6-s+As)”, “(20, 40, 60, 80,” for “(5, 7.5, 10, 15,”, “100” for “20”, “3).” for “2).”

[4] = tested on: human colon cancer cells (HCT-116)
[5] = tested on: human colon cancer cells (HT-29)
[6] = Urinary metabolic profile in mice (LC/MS); type: in vivo; settings: oral gavage 200 mg/kg, 24 h urine, FIG. 5
Description: The metabolic profile of Pt using LC/MS 23 was investigated. PAS was administered to mice (n=5) by oral gavage (200 mg/kg), and urine samples were collected in metabolism cages for 24 h after administration of vehicle (control mice) or PAS. LC/MS methods were developed to analyze PAS, pterostilbene, and aspirin. LC chromatograms of urine samples collected from PAS-treated mice obtained using positive APCI-MS interface (FIG. 5): (A) before and (B) after enzymatic hydrolysis (treated with β-glucuronidase and sulfatase); using negative ESI-MS interface: (C) before and (D) after enzymatic hydrolysis.
PAS had the highest response under positive APCI/MS mode, and aspirin and salicylic acid had the highest response under negative ESI/MS mode. Both positive APCI/MS and negative ESI/MS modes are sensitive to pterostilbene. However, aspirin and salicylic acid are hardly detectable under positive APCI/MS mode, and PAS is not detectable under negative ESI/MS mode. Therefore, APCI/MS positive mode was used to analyze PAS, pterostilbene, and their metabolites, and ESI/MS negative mode was used to analyze aspirin, pterostilbene, and their metabolites.

## CCCCCC(O)CC(=O)CCc1ccc(OC(=O)c2ccccc2OC(C)=O)c(OC)c1 (stereo not shown) [GAS, 6-gingerol aspirinate]
[1]; 20, 40, 60, 80, 100 μM, FIG. 3
  growth inhibitory effect: much stronger growth inhibitory effect than 6-gingerol and aspirin alone, as well as the combination of 6-gingerol and aspirin (1:1)
[2]; 20, 40, 60, 80, 100 μM, FIG. 3
  growth inhibitory effect: much stronger growth inhibitory effect than 6-gingerol and aspirin alone, as well as the combination of 6-gingerol and aspirin (1:1)
[3]; 20, 40, 60, 80, 100 μM, FIG. 3
  growth inhibitory effect: much stronger growth inhibitory effect than 6-gingerol and aspirin alone, as well as the combination of 6-gingerol and aspirin (1:1)

## CC(=O)Oc1ccccc1C(=O)Oc1ccc(/C=C/c2cc(O)cc(O)c2)cc1 [RAS, 4′-aspirinated resveratrol]
[1]; 20, 30, 40, 50, 60 μM, FIG. 1
  growth inhibitory effect: stronger growth inhibitory effect than resveratrol and aspirin alone, and stronger than the combination of resveratrol and aspirin (1:1); also recorded: much stronger growth inhibitory effects than RAS-1, MRAS, and PAS
[2]; 20, 30, 40, 50, 60 μM, FIG. 1
  growth inhibitory effect: stronger growth inhibitory effect than resveratrol and aspirin alone, and stronger than the combination of resveratrol and aspirin (1:1); also recorded: much stronger growth inhibitory effects than RAS-1, MRAS, and PAS
[4]
  hydrolysis in cells: hydrolyzed in human colon cancer cells (HCT-116 and HT-29) to generate resveratrol and aspirin
[5]
  hydrolysis in cells: hydrolyzed in human colon cancer cells (HCT-116 and HT-29) to generate resveratrol and aspirin

## mono-methylated resveratrol aspirinate [MRAS]
[1]; 20, 30, 40, 50, 60 μM, FIG. 1
  growth inhibitory effect: weaker growth inhibitory effects than MRes and the combination of MRes and aspirin (1:1)
[2]; 20, 30, 40, 50, 60 μM, FIG. 1
  growth inhibitory effect: weaker growth inhibitory effects than MRes and the combination of MRes and aspirin (1:1)

## CCCCC/C=C/C(=O)CCc1ccc(OC(=O)c2ccccc2OC(C)=O)c(OC)c1 [SAS, 6-shogaol aspirinate]
[1]; 5, 7.5, 10, 15, 20 μM, FIG. 2
  growth inhibitory effect: stronger growth inhibitory effect than aspirin alone, but less effective than 6-shogaol alone and the combination of 6-shogaol and aspirin (1:1)
[2]; 5, 7.5, 10, 15, 20 μM, FIG. 2
  growth inhibitory effect: stronger growth inhibitory effect than aspirin alone, but less effective than 6-shogaol alone and the combination of 6-shogaol and aspirin (1:1)
[3]; 5, 7.5, 10, 15, 20 μM, FIG. 2
  growth inhibitory effect: stronger growth inhibitory effect than aspirin alone, but less effective than 6-shogaol alone and the combination of 6-shogaol and aspirin (1:1)

## COc1cc(C=Cc2ccc(OC(=O)c3ccccc3OC(C)=O)cc2)cc(OC)c1 [PAS, pterostilbene aspirinate]
[1]; 20, 30, 40, 50, 60 μM, FIG. 1
  growth inhibitory effect: weaker growth inhibitory effects than pterostilbene and the combination of pterostilbene and aspirin (1:1)
[2]; 20, 30, 40, 50, 60 μM, FIG. 1
  growth inhibitory effect: weaker growth inhibitory effects than pterostilbene and the combination of pterostilbene and aspirin (1:1)
[6]
  detection of parent compound or deacetylated metabolites in urine: neither PAS nor its deacetylated metabolites were detected
  hydrolysis in vivo (urinary metabolites): hydrolyzed in mice to generate metabolites of aspirin and pterostilbene
